Results: ChEMBL document CHEMBL1143427, “Interactions of ceftobiprole with beta-lactamases from molecular classes A to D” (Antimicrob Agents Chemother, 2007)

How the values were obtained:
[1] = target: T1, Beta-lactamase (Klebsiella oxytoca) (UniProt Q8RT60); assay: Ratio of Kcat to Km of Klebsiella oxytoca beta-lactamase K1 assessed as drug hydrolysis by spectrophotometry relative to cephaloridine; design: scale not given: the % may be the effect or the level left
T1 sequence (whole entry): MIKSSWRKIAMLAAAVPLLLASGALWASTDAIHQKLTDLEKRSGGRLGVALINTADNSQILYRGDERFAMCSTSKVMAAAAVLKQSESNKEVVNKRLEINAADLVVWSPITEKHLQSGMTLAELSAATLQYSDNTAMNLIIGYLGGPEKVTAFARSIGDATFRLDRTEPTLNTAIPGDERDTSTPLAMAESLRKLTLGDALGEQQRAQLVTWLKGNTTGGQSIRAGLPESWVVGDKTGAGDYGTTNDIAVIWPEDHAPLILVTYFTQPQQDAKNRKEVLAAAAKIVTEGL

[2] = target: T1, Beta-lactamase (Klebsiella oxytoca); assay: Activity of Klebsiella oxytoca beta-lactamase K1 assessed as drug hydrolysis by spectrophotometry relative to cephaloridine; design: scale not given: the % may be the effect or the level left
[3] = test system: Klebsiella pneumoniae; assay: Ratio of Kcat to Km of Klebsiella pneumoniae TEM26 assessed as drug hydrolysis by spectrophotometry relative to cephaloridine; design: scale not given: the % may be the effect or the level left
[4] = target: Beta-lactamase CTX-M (Escherichia coli) (UniProt Q9EXV5); assay: Activity of Escherichia coli CTX-M-15 assessed as drug hydrolysis by spectrophotometry relative to cephaloridine; design: scale not given: the % may be the effect or the level left
[5] = test system: Klebsiella pneumoniae; assay: Ratio of Kcat to Km of Klebsiella pneumoniae TEM26 assessed as drug hydrolysis by spectrophotometry
[6] = test system: Klebsiella pneumoniae; assay: Activity of Klebsiella pneumoniae TEM26 assessed as drug hydrolysis by spectrophotometry relative to cephaloridine; design: scale not given: the % may be the effect or the level left
[7] = target: Beta-lactamase CTX-M (Escherichia coli) (UniProt Q9EXV5); assay: Ratio of Kcat to Km of Escherichia coli CTX-M-15 assessed as drug hydrolysis by spectrophotometry relative to cephaloridine; design: scale not given: the % may be the effect or the level left
[8] = test system: Klebsiella pneumoniae; assay: Activity of Klebsiella pneumoniae TEM26 assessed as drug hydrolysis by spectrophotometry
[9] = target: T2, Beta-lactamase SHV-1 (Klebsiella pneumoniae) (UniProt P0AD64); assay: Ratio of Kcat to Km of Klebsiella pneumoniae SHV1 assessed as drug hydrolysis by spectrophotometry relative to cephaloridine; design: scale not given: the % may be the effect or the level left
T2 sequence (whole entry): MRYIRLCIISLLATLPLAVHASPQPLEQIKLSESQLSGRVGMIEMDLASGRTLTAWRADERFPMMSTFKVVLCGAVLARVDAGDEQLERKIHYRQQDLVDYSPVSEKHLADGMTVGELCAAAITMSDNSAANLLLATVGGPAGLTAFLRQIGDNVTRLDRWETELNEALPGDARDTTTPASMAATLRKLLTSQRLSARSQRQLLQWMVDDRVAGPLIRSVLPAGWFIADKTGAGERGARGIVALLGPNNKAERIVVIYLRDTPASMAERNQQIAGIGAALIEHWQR

[10] = target: T3, Carbapenem-hydrolyzing beta-lactamase SME-3 (Serratia marcescens) (UniProt Q6PRG8); assay: Activity of Serratia marcescens SME3 assessed as drug hydrolysis by spectrophotometry relative to cephaloridine; design: scale not given: the % may be the effect or the level left
T3 sequence (whole entry): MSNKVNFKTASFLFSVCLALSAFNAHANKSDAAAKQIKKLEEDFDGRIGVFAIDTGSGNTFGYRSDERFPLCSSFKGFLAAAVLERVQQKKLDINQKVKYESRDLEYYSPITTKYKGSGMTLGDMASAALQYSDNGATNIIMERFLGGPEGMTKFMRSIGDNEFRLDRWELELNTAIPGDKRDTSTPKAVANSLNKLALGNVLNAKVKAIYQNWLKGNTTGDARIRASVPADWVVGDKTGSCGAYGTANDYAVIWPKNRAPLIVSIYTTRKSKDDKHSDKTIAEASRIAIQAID

[11] = target: T4, Beta-lactamase (Providencia stuartii) (UniProt O69773); assay: Activity of Providencia stuartii AmpC assessed as drug hydrolysis by spectrophotometry relative to cephaloridine; design: scale not given: the % may be the effect or the level left
T4 sequence (whole entry): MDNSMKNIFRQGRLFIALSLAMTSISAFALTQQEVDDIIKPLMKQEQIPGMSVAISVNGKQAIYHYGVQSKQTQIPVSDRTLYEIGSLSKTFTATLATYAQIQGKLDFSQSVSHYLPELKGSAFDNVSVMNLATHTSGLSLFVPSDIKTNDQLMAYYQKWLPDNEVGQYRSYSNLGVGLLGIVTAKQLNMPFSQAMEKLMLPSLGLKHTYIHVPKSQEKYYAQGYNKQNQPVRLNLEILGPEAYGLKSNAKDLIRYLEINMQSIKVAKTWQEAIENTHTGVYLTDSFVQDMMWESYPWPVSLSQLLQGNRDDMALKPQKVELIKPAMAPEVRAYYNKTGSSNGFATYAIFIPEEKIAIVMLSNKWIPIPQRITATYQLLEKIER

[12] = target: Beta-lactamase (Serratia marcescens) (UniProt P18539); assay: Ratio of Kcat to Km of Serratia marcescens AmpC assessed as drug hydrolysis by spectrophotometry relative to cephaloridine; design: scale not given: the % may be the effect or the level left
[13] = target: Beta-lactamase TEM (Escherichia coli) (UniProt P62593); assay: Ratio of Kcat to Km of Escherichia coli TEM1 assessed as drug hydrolysis by spectrophotometry relative to cephaloridine; design: scale not given: the % may be the effect or the level left
[14] = target: Beta-lactamase (Pseudomonas aeruginosa (strain ATCC 15692 / PAO1 / 1C / PRS 101 / LMG12228)) (UniProt P24735); assay: Ratio of Kcat to Km of Pseudomonas aeruginosa AmpC assessed as drug hydrolysis by spectrophotometry relative to cephaloridine; design: scale not given: the % may be the effect or the level left
[15] = target: Beta-lactamase TEM (Escherichia coli) (UniProt P62593); assay: Activity of Escherichia coli TEM1 assessed as drug hydrolysis by spectrophotometry relative to cephaloridine; design: scale not given: the % may be the effect or the level left
[16] = target: Beta-lactamase (Pseudomonas aeruginosa (strain ATCC 15692 / PAO1 / 1C / PRS 101 / LMG12228)) (UniProt P24735); assay: Activity of Pseudomonas aeruginosa MK-1184 AmpC assessed as drug hydrolysis by spectrophotometry relative to cephaloridine; design: scale not given: the % may be the effect or the level left
[17] = target: Beta-lactamase VIM-2 (Pseudomonas aeruginosa) (UniProt Q9K2N0); assay: Activity of Pseudomonas aeruginosa VIM2 assessed as drug hydrolysis by spectrophotometry relative to cephaloridine; design: scale not given: the % may be the effect or the level left
[18] = target: T4, Beta-lactamase (Providencia stuartii); assay: Ratio of Kcat to Km of Providencia stuartii AmpC assessed as drug hydrolysis by spectrophotometry relative to cephaloridine; design: scale not given: the % may be the effect or the level left
[19] = target: Beta-lactamase (Pseudomonas aeruginosa (strain ATCC 15692 / PAO1 / 1C / PRS 101 / LMG12228)) (UniProt P24735); assay: Ratio of Kcat to Km of Pseudomonas aeruginosa 4352 AmpC assessed as drug hydrolysis by spectrophotometry relative to cephaloridine; design: scale not given: the % may be the effect or the level left
[20] = target: Beta-lactamase (Pseudomonas aeruginosa (strain ATCC 15692 / PAO1 / 1C / PRS 101 / LMG12228)) (UniProt P24735); assay: Ratio of Kcat to Km of Pseudomonas aeruginosa 18SH AmpC assessed as drug hydrolysis by spectrophotometry relative to cephaloridine; design: scale not given: the % may be the effect or the level left
[21] = target: Beta-lactamase (Staphylococcus aureus) (UniProt P00807); assay: Ratio of Kcat to Km of Staphylococcus aureus betalactamase PC1 assessed as drug hydrolysis by spectrophotometry relative to cephaloridine; design: scale not given: the % may be the effect or the level left
[22] = target: Beta-lactamase (Morganella morganii) (UniProt P94958); assay: Ratio of Kcat to Km of Morganella morganii AmpC assessed as drug hydrolysis by spectrophotometry relative to cephaloridine; design: scale not given: the % may be the effect or the level left
[23] = target: Beta-lactamase (Pseudomonas aeruginosa (strain ATCC 15692 / PAO1 / 1C / PRS 101 / LMG12228)) (UniProt P24735); assay: Activity of Pseudomonas aeruginosa 4352 AmpC assessed as drug hydrolysis by spectrophotometry relative to cephaloridine; design: scale not given: the % may be the effect or the level left
[24] = target: T2, Beta-lactamase SHV-1 (Klebsiella pneumoniae); assay: Activity of Klebsiella pneumoniae SHV1 assessed as drug hydrolysis by spectrophotometry relative to cephaloridine; design: scale not given: the % may be the effect or the level left
[25] = target: Beta-lactamase (Pseudomonas aeruginosa (strain ATCC 15692 / PAO1 / 1C / PRS 101 / LMG12228)) (UniProt P24735); assay: Ratio of Kcat to Km of Pseudomonas aeruginosa MK-1184 AmpC assessed as drug hydrolysis by spectrophotometry relative to cephaloridine; design: scale not given: the % may be the effect or the level left
[26] = target: Beta-lactamase VIM-2 (Pseudomonas aeruginosa) (UniProt Q9K2N0); assay: Ratio of Kcat to Km of Pseudomonas aeruginosa VIM2 assessed as drug hydrolysis by spectrophotometry relative to cephaloridine; design: scale not given: the % may be the effect or the level left
[27] = target: Beta-lactamase (Serratia marcescens) (UniProt P18539); assay: Activity of Serratia marcescens AmpC assessed as drug hydrolysis by spectrophotometry relative to cephaloridine; design: scale not given: the % may be the effect or the level left
[28] = target: Beta-lactamase (Pseudomonas aeruginosa (strain ATCC 15692 / PAO1 / 1C / PRS 101 / LMG12228)) (UniProt P24735); assay: Activity of Pseudomonas aeruginosa 18SH AmpC assessed as drug hydrolysis by spectrophotometry relative to cephaloridine; design: scale not given: the % may be the effect or the level left
[29] = target: Beta-lactamase (Morganella morganii) (UniProt P94958); assay: Activity of Morganella morganii AmpC assessed as drug hydrolysis by spectrophotometry relative to cephaloridine; design: scale not given: the % may be the effect or the level left
[30] = target: Beta-lactamase (Staphylococcus aureus) (UniProt P00807); assay: Activity of Staphylococcus aureus betalactamase PC1 assessed as drug hydrolysis by spectrophotometry relative to cephaloridine; design: scale not given: the % may be the effect or the level left
[31] = target: Beta-lactamase (Pseudomonas aeruginosa (strain ATCC 15692 / PAO1 / 1C / PRS 101 / LMG12228)) (UniProt P24735); assay: Activity of Pseudomonas aeruginosa AmpC assessed as drug hydrolysis by spectrophotometry relative to cephaloridine; design: scale not given: the % may be the effect or the level left
[32] = target: Metallo beta-lactamase (Pseudomonas aeruginosa) (UniProt Q6TUJ4); assay: Ratio of Kcat to Km of Pseudomonas aeruginosa IMP1 assessed as drug hydrolysis by spectrophotometry relative to cephaloridine; design: scale not given: the % may be the effect or the level left
[33] = target: T3, Carbapenem-hydrolyzing beta-lactamase SME-3 (Serratia marcescens); assay: Ratio of Kcat to Km of Serratia marcescens SME3 assessed as drug hydrolysis by spectrophotometry relative to cephaloridine; design: scale not given: the % may be the effect or the level left

Chain of Beta-lactamase (Pseudomonas aeruginosa (strain ATCC 15692 / PAO1 / 1C / PRS 101 / LMG12228)) (P24735 27-397 limits assumed): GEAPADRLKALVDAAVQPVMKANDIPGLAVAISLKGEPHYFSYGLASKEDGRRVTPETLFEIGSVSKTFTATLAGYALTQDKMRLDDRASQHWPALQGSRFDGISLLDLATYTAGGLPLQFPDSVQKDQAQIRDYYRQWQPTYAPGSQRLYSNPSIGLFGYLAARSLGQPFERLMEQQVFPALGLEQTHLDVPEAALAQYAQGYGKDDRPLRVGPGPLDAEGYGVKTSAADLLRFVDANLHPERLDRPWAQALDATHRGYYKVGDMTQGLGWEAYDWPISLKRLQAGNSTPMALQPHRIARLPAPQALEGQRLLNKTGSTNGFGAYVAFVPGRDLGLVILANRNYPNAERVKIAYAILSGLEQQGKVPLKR
Chain of Beta-lactamase (Serratia marcescens) (P18539 whole entry): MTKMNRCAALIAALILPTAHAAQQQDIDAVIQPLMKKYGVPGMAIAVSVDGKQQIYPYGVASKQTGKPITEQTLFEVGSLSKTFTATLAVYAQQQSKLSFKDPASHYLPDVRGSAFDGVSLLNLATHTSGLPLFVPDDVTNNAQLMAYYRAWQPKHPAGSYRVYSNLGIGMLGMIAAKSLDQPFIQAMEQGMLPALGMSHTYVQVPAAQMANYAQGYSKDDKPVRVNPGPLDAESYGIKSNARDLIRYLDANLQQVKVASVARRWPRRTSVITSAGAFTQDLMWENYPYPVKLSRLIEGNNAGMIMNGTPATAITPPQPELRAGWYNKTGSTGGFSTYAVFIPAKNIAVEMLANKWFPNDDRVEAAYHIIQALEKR
Chain of Beta-lactamase (Staphylococcus aureus) (P00807 whole entry): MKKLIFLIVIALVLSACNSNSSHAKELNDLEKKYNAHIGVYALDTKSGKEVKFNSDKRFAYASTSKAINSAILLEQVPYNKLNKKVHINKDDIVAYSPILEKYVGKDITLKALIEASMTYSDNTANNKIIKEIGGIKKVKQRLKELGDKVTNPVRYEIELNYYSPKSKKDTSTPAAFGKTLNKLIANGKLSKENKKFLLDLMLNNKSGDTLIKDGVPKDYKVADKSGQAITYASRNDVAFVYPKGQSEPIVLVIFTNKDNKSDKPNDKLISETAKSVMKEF
Chain of Beta-lactamase TEM (Escherichia coli) (P62593 whole entry): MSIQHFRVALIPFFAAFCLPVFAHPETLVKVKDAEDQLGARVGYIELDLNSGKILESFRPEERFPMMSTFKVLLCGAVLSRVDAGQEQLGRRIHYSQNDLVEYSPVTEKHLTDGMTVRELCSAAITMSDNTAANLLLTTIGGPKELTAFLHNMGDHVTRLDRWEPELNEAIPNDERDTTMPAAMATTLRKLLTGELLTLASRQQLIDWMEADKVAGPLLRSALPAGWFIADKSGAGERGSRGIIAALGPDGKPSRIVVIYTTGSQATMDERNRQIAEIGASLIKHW
Chain of Metallo beta-lactamase (Pseudomonas aeruginosa) (Q6TUJ4 as listed by the source): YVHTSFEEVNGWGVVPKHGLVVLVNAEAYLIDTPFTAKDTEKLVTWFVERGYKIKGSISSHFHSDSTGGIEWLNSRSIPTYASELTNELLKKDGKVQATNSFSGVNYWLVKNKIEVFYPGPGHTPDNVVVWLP

CO/N=C(\C(=O)N[C@@H]1C(=O)N2C(C(=O)O)=C(COC(C)=O)CS[C@H]12)c1csc(N)n1
Activity [1]: 2.3%
Activity [2]: 13%
Activity [3]: 34%
Activity [4]: 95%
kcat/Km [5]: 190000 M⁻¹ s⁻¹
Activity [6]: 7.8%
Activity [7]: 140%
Km [8]: 15 µM
kcat [8]: 2.9 s⁻¹

Nc1nc(/C(=N/O)C(=O)N[C@@H]2C(=O)N3C(C(=O)O)=C(/C=C4\CCN([C@@H]5CCNC5)C4=O)CS[C@H]23)ns1
Activity [9]: 7.4%
Activity [1]: 100%
Activity [10]: 0.49%
Activity [11]: 0.03%
Activity [12]: < 0.27%
Activity [13]: 1.6%
Activity [2]: 33%
Activity [3]: 20%
Activity [14]: 9900%
Activity [4]: 140%
Activity [15]: 0.9%
Activity [16]: 2%
Activity [17]: 13%
Activity [18]: 0.11%
Activity [19]: 0.14%
kcat/Km [5]: 110000 M⁻¹ s⁻¹
Activity [20]: 0.71%
Activity [6]: 19%
Activity [21]: 24%
Activity [22]: < 0.071%
Activity [23]: < 0.024%
Activity [24]: 6%
Activity [7]: 290%
Activity [25]: 1%
Activity [26]: 380%
Activity [27]: < 0.14%
Activity [28]: 0.028%
Km [8]: 63 µM
kcat [8]: 6.9 s⁻¹
Activity [29]: < 0.0064%
Activity [30]: 17%
Activity [31]: 1400%
Activity [32]: 990%
Activity [33]: 0.73%

O=C(Cc1cccs1)N[C@@H]1C(=O)N2C(C(=O)[O-])=C(C[n+]3ccccc3)CS[C@H]12
kcat/Km [5]: 560000 M⁻¹ s⁻¹
Km [8]: 66 µM
kcat [8]: 37 s⁻¹
